Measurements published in ChEMBL document CHEMBL6078642, “Design, Synthesis, and Activity Evaluation of BRD4 PROTAC Based on Alkenyl Oxindole-DCAF11 Pair” (J Med Chem, 2024).
Active and inactive are the calls of the source. The calls are words filed in the database; no cut-off is given here.

Legend:
DCAF11-BRD4 [1] = target: T1, DCAF11-BRD4 (Homo sapiens, UniProt O60885+Q8TEB1); experiment: PROTAC activity at DCAF11/BRD4 in human MDA-MB-231 cells assessed as induction of BRD4 degradation at 10 uM incubated for 12 hrs by immunoblot analysis; format: cell-based
T1 sequence (Q8TEB1 whole entry, looked up, other chains not shown): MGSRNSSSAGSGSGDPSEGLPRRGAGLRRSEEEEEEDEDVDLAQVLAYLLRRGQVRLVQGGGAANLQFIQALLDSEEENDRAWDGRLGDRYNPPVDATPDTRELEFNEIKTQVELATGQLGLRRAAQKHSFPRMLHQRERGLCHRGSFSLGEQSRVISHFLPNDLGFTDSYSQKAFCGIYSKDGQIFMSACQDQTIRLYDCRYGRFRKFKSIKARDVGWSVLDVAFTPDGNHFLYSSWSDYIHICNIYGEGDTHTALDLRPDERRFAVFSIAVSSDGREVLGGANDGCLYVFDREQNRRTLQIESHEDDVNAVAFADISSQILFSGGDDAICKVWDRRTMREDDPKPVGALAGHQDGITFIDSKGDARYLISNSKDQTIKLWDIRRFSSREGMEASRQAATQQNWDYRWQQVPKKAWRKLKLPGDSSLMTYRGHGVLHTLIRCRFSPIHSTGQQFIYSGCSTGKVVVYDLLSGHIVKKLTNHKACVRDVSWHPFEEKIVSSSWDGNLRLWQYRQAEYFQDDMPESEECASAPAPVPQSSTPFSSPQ

MDA-MB-231 [2] = experiment: Antiproliferative activity against human MDA-MB-231 cells assessed as reduction in cell viability incubated for 2 days by CCK8 assay; format: functional, cell-based; settings: MDA-MB-231, 48 h
MDA-MB-468 [3] = experiment: Antiproliferative activity against human MDA-MB-468 cells assessed as reduction in cell viability incubated for 2 days by CCK8 assay; format: functional, cell-based; settings: MDA-MB-468, 48 h
MDA-MB-231 [4] = experiment: Antiproliferative activity against human MDA-MB-231 cells assessed as reduction in cell viability incubated for 2 days in presence of JQ1 by CCK8 assay; format: functional, cell-based; settings: MDA-MB-231, 48 h
MDA-MB-468 [5] = experiment: Antiproliferative activity against human MDA-MB-468 cells assessed as reduction in cell viability incubated for 2 days in presence of JQ1 by CCK8 assay; format: functional, cell-based; settings: MDA-MB-468, 48 h
MDA-MB-231 [6] = experiment: Induction of apoptosis in human MDA-MB-231 cells assessed as increase in cleaved PARP level by immunoblot analysis; format: functional, cell-based
MDA-MB-231 [7] = experiment: Induction of apoptosis in human MDA-MB-231 cells assessed as increase in cleaved caspase-7 level by immunoblot analysis; format: functional, cell-based
DCAF11-BRD4 [8] = target: T1, DCAF11-BRD4; experiment: PROTAC activity at DCAF11/BRD4 in human MDA-MB-231 cells assessed as induction of BRD4 degradation at 1 uM incubated for 12 hrs in presence of JQ1 by immunoblot analysis; format: cell-based
DCAF11-BRD4 [9] = target: T1, DCAF11-BRD4; experiment: PROTAC activity at DCAF11/BRD4 BD1 domain (unknown origin) expressed in HEK293T cells assessed as induction of BRD4 degradation at 1 uM incubated for 12 hrs by Dual fluorescence reporter cell high content imaging analysis relative to control; format: cell-based
DCAF11-BRD4 [10] = target: T1, DCAF11-BRD4; experiment: PROTAC activity at DCAF11/BRD4 BD1 domain (unknown origin) expressed in HEK293T cells assessed as induction of BRD4 degradation at 10 to 100 nM incubated for 12 hrs by Dual fluorescence reporter cell high content imaging analysis; format: cell-based; settings: dose 10-100 nM
DCAF11-BRD4 [11] = target: T1, DCAF11-BRD4; experiment: PROTAC activity at DCAF11/BRD4 in human MDA-MB-231 cells assessed as induction of BRD4 degradation at 10 to 100 nM incubated for 1 hrs by immunoblot analysis; format: cell-based; settings: dose 10-100 nM
DCAF11-BRD4 [12] = target: T1, DCAF11-BRD4; experiment: PROTAC activity at DCAF11/BRD4 in human MDA-MB-231 cells assessed as induction of BRD4 degradation at 1 uM measured within 1 hrs by immunoblot analysis; format: cell-based
DCAF11-BRD4 [13] = target: T1, DCAF11-BRD4; experiment: PROTAC activity at DCAF11/BRD4 in human MDA-MB-231 cells assessed as induction of BRD4 degradation incubated for 12 hrs by immunoblot analysis; format: cell-based; settings: dose 0.1-1000 nM
DCAF11-BRD4 [14] = target: T1, DCAF11-BRD4; experiment: PROTAC activity at DCAF11/BRD4 in human MDA-MB-231 cells assessed as induction of BRD4 degradation at 10 nM incubated for 12 hrs by immunoblot analysis; format: cell-based
DCAF11-BRD4 [15] = target: T1, DCAF11-BRD4; experiment: PROTAC activity at DCAF11/BRD4 in human MDA-MB-231 cells assessed as induction of BRD4 degradation by immunoblot analysis; format: cell-based
MDA-MB-231 [16] = experiment: Effect on BRD4 mRNA gene expression in human MDA-MB-231 cells at 0.1 to 1 microM incubated for 12 hrs by qPCR analysis; format: functional, cell-based; settings: dose 0.1-1 µM
MDA-MB-231 [17] = experiment: Downregulation of BRD4 protein expression in human MDA-MB-231 cells at 1 uM incubated for 6 hrs by proteomic analysis; format: functional, cell-based
DCAF11-BRD4 [18] = target: T1, DCAF11-BRD4; experiment: PROTAC activity at DCAF11/BRD4 in human MDA-MB-231 cells assessed as induction of BRD4 degradation at 1 uM preincubated with MG132 for 1 hrs and measured after compound addition by immunoblot analysis; format: cell-based
DCAF11-BRD4 [19] = target: T1, DCAF11-BRD4; experiment: PROTAC activity at DCAF11/BRD4 in human MDA-MB-231 cells assessed as induction of BRD4 degradation at 1 uM preincubated with bortezomib for 1 hrs and measured after compound addition by immunoblot analysis; format: cell-based
DCAF11-BRD4 [20] = target: T1, DCAF11-BRD4; experiment: PROTAC activity at DCAF11/BRD4 in human MDA-MB-231 cells assessed as induction of BRD4 degradation at 1 uM preincubated with PYR41 for 1 hrs and measured after compound addition by immunoblot analysis; format: cell-based
DCAF11-BRD4 [21] = target: T1, DCAF11-BRD4; experiment: PROTAC activity at DCAF11/BRD4 in human MDA-MB-231 cells assessed as induction of BRD4 degradation at 1 uM preincubated with MLN4924 for 1 hrs and measured after compound addition by immunoblot analysis; format: cell-based
DCAF11-BRD4 [22] = target: T1, DCAF11-BRD4; experiment: PROTAC activity at DCAF11/BRD4 in human MDA-MB-231 cells assessed as induction of BRD4 degradation at 1 uM preincubated with chloroquine for 1 hrs and measured after compound addition by immunoblot analysis; format: cell-based
DCAF11-BRD4 [23] = target: T1, DCAF11-BRD4; experiment: PROTAC activity at DCAF11/BRD4 in human MDA-MB-231 cells assessed as induction of BRD4 degradation at 1 uM preincubated with bafilomycin A1 for 1 hrs and measured after compound addition by immunoblot analysis; format: cell-based
HEK293T [24] = experiment: Induction of BRD4 BD1 domain (unknown origin) degradation expressed in DCAF11 knockout HEK293T cells assessed as decrease in red fluorescence at 1 uM incubated for 12 hrs by dual fluorescence reporter cell based high content imaging analysis; settings: Homo sapiens
HEK293T [25] = experiment: Induction of BRD4 BD1 domain (unknown origin) degradation expressed in DCAF11 knockout HEK293T cells at 1 uM incubated for 12 hrs by immunoblot analysis; format: cell-based; settings: Homo sapiens
DCAF11-BRD4 [26] = target: T1, DCAF11-BRD4; experiment: PROTAC activity at DCAF11/BRD4 in human MDA-MB-231 cells assessed as induction of BRD4 degradation at 1 uM incubated for 12 hrs in presence of tert-butyl 2-(4-methyl-2-((2-oxo-6-(trifluoromethyl)indolin-3-ylidene)methyl)phenoxy)acetate by immunoblot analysis; format: cell-based
DCAF11-BRD4 [27] = target: T1, DCAF11-BRD4; experiment: Binding affinity to HA-tagged DCAF11/Flag-tagged BRD4 BD1 domain (unknown origin) expressed in HEK293T cells by co-immunoprecipitation analysis; format: cell-based
DCAF11-BRD4 [28] = target: T1, DCAF11-BRD4; experiment: Binding affinity to DCAF11/BRD4 BD1 domain in HEK293T cells by co-immunoprecipitation analysis; format: cell-based
MCF7 = experiment: Antiproliferative activity against human MCF7 cells assessed as reduction in cell viability incubated for 2 days by CCK8 assay; format: functional, cell-based; settings: MCF7, 48 h
T47D = experiment: Antiproliferative activity against human T47D cells assessed as reduction in cell viability incubated for 2 days by CCK8 assay; format: functional, cell-based; settings: 48 h
MDA-MB-157 = experiment: Antiproliferative activity against human MDA-MB-157 cells assessed as reduction in cell viability incubated for 2 days by CCK8 assay; format: functional, cell-based; settings: MDA-MB-157, 48 h
HCC1937 = experiment: Antiproliferative activity against human HCC1937 cells assessed as reduction in cell viability incubated for 2 days by CCK8 assay; format: functional, cell-based; settings: HCC1937, 48 h
BT-549 = experiment: Antiproliferative activity against human BT-549 cells assessed as reduction in cell viability incubated for 2 days by CCK8 assay; format: functional, cell-based; settings: BT-549, 48 h
DCAF11-BRD4 [29] = target: T1, DCAF11-BRD4; experiment: PROTAC activity at DCAF11/BRD4 in human T47D cells assessed as induction of BRD4 degradation at 1 uM incubated for 12 hrs by immunoblot analysis; format: cell-based
DCAF11-BRD4 [30] = target: T1, DCAF11-BRD4; experiment: PROTAC activity at DCAF11/BRD4 in human BT-549 cells assessed as induction of BRD4 degradation at 1 uM incubated for 12 hrs by immunoblot analysis; format: cell-based
DCAF11-BRD4 [31] = target: T1, DCAF11-BRD4; experiment: PROTAC activity at DCAF11/BRD4 in human MCF7 cells assessed as induction of BRD4 degradation at 1 uM incubated for 12 hrs by immunoblot analysis; format: cell-based
DCAF11-BRD4 [32] = target: T1, DCAF11-BRD4; experiment: PROTAC activity at DCAF11/BRD4 in human MDA-MB-468 cells assessed as induction of BRD4 degradation at 1 uM incubated for 12 hrs by immunoblot analysis; format: cell-based
DCAF11-BRD4 [33] = target: T1, DCAF11-BRD4; experiment: PROTAC activity at DCAF11/BRD4 in human MDA-MB-157 cells assessed as induction of BRD4 degradation at 1 uM incubated for 12 hrs by immunoblot analysis; format: cell-based
DCAF11-BRD4 [34] = target: T1, DCAF11-BRD4; experiment: PROTAC activity at DCAF11/BRD4 in human HCC1937 cells assessed as induction of BRD4 degradation at 1 uM incubated for 12 hrs by immunoblot analysis; format: cell-based
DCAF11-BRD4 [35] = target: T1, DCAF11-BRD4; experiment: PROTAC activity at DCAF11/BRD4 in human MDA-MB-231 cells assessed as induction of BRD4 degradation at 1 to 100 nM incubated for 1 hrs by Western blot analysis; format: cell-based; settings: dose 1-100 nM
MDA-MB-231 [36] = experiment: Inhibition of cell migration in human MDA-MB-231 cells at 0.1 to 1 uM measured after 48 hrs by crystal violet staining based transwell migration assay; format: functional; settings: dose 0.1-1 µM

Cc1ccc(OCC(=O)OC(C)(C)C)c(/C=C2\C(=O)Nc3cc(C(F)(F)F)ccc32)c1
Activity (DCAF11-BRD4 [1]): inactive
IC50 (MDA-MB-231 [2]): 11.4 µM
IC50 (MDA-MB-468 [3]): 26.6 µM
IC50 (MDA-MB-231 [4]): 3.71 µM
IC50 (MDA-MB-468 [5]): 10 µM
Activity (MDA-MB-231 [6]): inactive
Activity (MDA-MB-231 [7]): inactive

Cc1ccc(OCC(=O)NCCCOCCOCCOCCCNC(=O)C[C@@H]2N=C(c3ccc(Cl)cc3)c3c(sc(C)c3C)-n3c(C)nnc32)c(/C=C2\C(=O)Nc3cc(C(F)(F)F)ccc32)c1 (stereo in doubt)
Activity (DCAF11-BRD4 [8]): inactive
Activity (DCAF11-BRD4 [9]): > 35%
Activity (DCAF11-BRD4 [10]): Active
Activity (DCAF11-BRD4 [11]): Active
Activity (DCAF11-BRD4 [12]): Active
Activity (DCAF11-BRD4 [13]): Dose-dependent-effect
Activity (DCAF11-BRD4 [14]): Active
DC50 (DCAF11-BRD4 [15]): 7.36 nM
Activity (MDA-MB-231 [16]): inactive
Activity (MDA-MB-231 [17]): Active
Activity (DCAF11-BRD4 [18]): inactive
Activity (DCAF11-BRD4 [19]): inactive
Activity (DCAF11-BRD4 [20]): inactive
Activity (DCAF11-BRD4 [21]): inactive
Activity (DCAF11-BRD4 [22]): Active
Activity (DCAF11-BRD4 [23]): Active
Activity (HEK293T [24]): inactive
Activity (HEK293T [25]): inactive
Activity (DCAF11-BRD4 [26]): inactive
Activity (DCAF11-BRD4 [27]): Active
Activity (DCAF11-BRD4 [28]): Active
IC50 (MCF7): 2850 nM
IC50 (T47D): 630 nM
IC50 (MDA-MB-231 [2]): 0.07 µM
IC50 (MDA-MB-157): 100 nM
IC50 (MDA-MB-468 [3]): 0.02 µM
IC50 (HCC1937): 180 nM
IC50 (BT-549): 6.37 µM
Activity (DCAF11-BRD4 [29]): Active
Activity (DCAF11-BRD4 [30]): Active
Activity (DCAF11-BRD4 [31]): Active
Activity (DCAF11-BRD4 [32]): Active
Activity (DCAF11-BRD4 [33]): Active
Activity (DCAF11-BRD4 [34]): Active
Activity (DCAF11-BRD4 [35]): Active; Degradation Capability Comparable To Dbet6 And Mz1
inhibition (MDA-MB-231 [36]): Active
Activity (MDA-MB-231 [6]): Active
Activity (MDA-MB-231 [7]): Active
